According to patent publication US8008260B2, “Methods of protecting against apoptosis using lipopeptides” (Cleveland Clinic Foundation, priority 2005, dated 2011):
Where “and” joins values, the source holds several entries; their conditions need not be identical. Identical values can stand only once. Peptide text beside a SMILES is read from it. * marks the point of attachment. Propyl(2R-PamO,3-PamO) = CCCCCCCCCCCCCCCC(=O)OC[C@H](C*)OC(=O)CCCCCCCCCCCCCCC

Legend:
ICR mice = assay: Radioprotection against total body gamma irradiation (TBI), 30-day survival; assay type: in vivo; conditions: for mice rescued (30-day survival): one experiment
Text: CBLB601, a R-Pam2-lipopeptide with the peptide moiety consisting of C-SKKKK (SEQ ID NO: 8), was selected for more detailed characterization as a radioprotector based upon its ability to activate NF-κB and preliminary in vivo data on radioprotection in NIH-SWISS mice (see Example 2). The objectives of this study were to determine the optimal dose, route of administration, and time of administration of CBLB601 to serve as a protector. ICR female mice of 10-15 weeks of age were used, with 10-15 animals per group or condition.
The optimal intraperitoneal administration schedule of CBLB601 was determined by injecting the compound at different times prior to irradiation. […] Therefore, all of the optimization experiments were performed with 10 Gy of total body irradiation (TBI). A dose of 3 μg of BCLB601/mouse (1/10 NOAEL) was chosen as the starting dose. Thus, 3 μg of CBLB601 was injected i.p. into ICR mice at 0.5 h, 1 h, 6 h, and 24 h or 1 h, 24 h, 48 h, 72 h, 96 h prior to 10 Gy of TBI (as described in Example 1). […] Injection of CBLB601 24 hrs before irradiation clearly yielded the best radioprotection (90-100% 30-day survival). When the compound was administered 48 hrs before irradiation, the radioprotection was ˜30%. Administration of CBLB601 at 1 hr prior to irradiation produced inconsistent results ranging from 80% protection in one experiment (FIG. 5B) to almost no protection (20%) in another experiment (FIG. 5A).
To determine the optimal radioprotective dose of CBLB601, the timing of injection and level of irradiation were kept constant, while the dose of CBLB601 was varied. ICR mice were injected i.p. with 1, 3, 10, 20, or 30 μg of CBLB601/mouse or 0.1, 0.3, 1, 3, 10, or […] 24 hrs prior to irradiation (10 Gy of TBI), and their survival was monitored for 30 days. The best protective dose was 3 μg/mouse, which supported a survival of 100% (FIGS. 6 A and B). […] Thus, the optimal protective dose of CBLB601 was determined to be 3 μg/mouse.
To determine the level of radiation that was protected by CBLB601, radioprotectant-treated and control mice were exposed to increasing levels of TBI. Groups of ICR mice were injected i.p. with either 3 μg CBLB601/mouse or PBS, and then 24 h later they received 10, 11, 12, 13, 14, and 15 Gy doses of TBI. Survival was recorded over 30 days. […] All of the mice irradiated with 10-11 Gy of TBI died between days 12-14 post irradiation, which was typical for death due to hematopoietic failure. All of the mice that received 14-15 Gy of TBI died between days 7-9 post irradiation, which was typical for mortality due to radiation-induced intestinal damage. Mice that were irradiated with 12-13 Gy of TBI died at intermediate times, which was typical for a mixed etiology of radiation-induced mortality. […] To reach a statistically significant 10% difference between control and CBLB601-treated mice, experimental groups of at least 50 mice must be used. Although CBLB601 rescued 100% of mice from 10 Gy of TBI, its protection at 11 Gy of TBI was only 20%. […] This may be indicative of a combined toxicity of the drug and the irradiation.
CBLB601 was administered intramuscularly to determine the optimal route of administration of this compound (especially since this would be the preferred route of administration for humans). […] In another experiment, increasing doses of CBLB601 administered i.m. were tested against 10, 11, and 12 Gy doses of […] (FIG. 9). […] A summary of the dose-dependency of the radioprotection of […] administered i.p. or i.m. 24 h prior to 10 Gy of TBI is shown in FIG. 10.
The optimal schedule of intramuscular administration of CBLB601 was determined by varying the time between drug delivery and irradiation. ICR mice were injected i.m. with 3 μg of CBLB601/mouse 24 h, 6 h, 3 h, and 1 h prior to TBI and +1 h, +3 h after TBI (FIG. 12A), as well as 48 h, 36 h, 24 h, 12 h, and 6 h prior to TBI (FIG. 12B). […]

NIH Swiss mice = assay: Protection from lethal total body gamma radiation, lipopeptides s.c. 30 minutes prior; assay type: in vivo; conditions: for survival post-treatment: <0.1 MTD
Method: Lipopeptides are potent activators of NF-κB and, as such, may act as inhibitors of apoptotic death. To determine whether lipopeptides function as radioprotectants, various lipopeptides were initially tested to determine the maximal tolerable dose (MTD). Various lipopeptides were then tested to measure their protective effect in NIH Swiss mice to lethal hematopoietic or nd gastrointestinal syndromes after exposure to 10 Gy or 13-15 Gy of total body gamma radiation, respectively. Lipopeptides (0.3-10 μg/mouse) were administered subcutaneously 30 minutes prior to irradiation.
The results of a representative experiment using R-PAM2C-SKKKK (SEQ ID NO: 8) (hereafter, this compound is called, CBLB601) at <0.1 MTD are shown in FIG. 3. As expected, control mice irradiated with 10 Gy died between 11 and 15 days post-treatment, while all animals that received CBLB601 lived beyond 35 days post-treatment. Similarly, control mice irradiated with 13 Gy died between 6 and 10 days post-treatment, while all but one animal that received CBLB601 lived beyond 35 days post-treatment. The radioprotective ability of CBLB601 was further analyzed by measuring the effect of radiation on spleen size.

[1] = 10 μg/mouse i.p. 24 hrs before 10 Gy TBI

CCCCCCCCCCCCCCCC(=O)OC[C@H](CSC[C@H](N)C(=O)N[C@@H](CO)C(=O)N[C@@H](CCCCN)C(=O)N[C@@H](CCCCN)C(=O)N[C@@H](CCCCN)C(=O)N[C@@H](CCCCN)C(=O)O)OC(=O)CCCCCCCCCCCCCCC [CBLB601, R-PAM2C-SKKKK] (H-C(Propyl(2R-PamO,3-PamO))SKKKK-OH)
mice rescued (30-day survival) (ICR mice; 1 μg/mouse i.p. 24 hrs before 10 Gy TBI): 90%
protective effect (ICR mice; 3 μg/mouse i.m. after (1 h and 3 h) 10 Gy TBI): no protective effect
optimal time for intramuscular delivery prior to TBI (ICR mice; 3 μg/mouse i.m., 10 Gy TBI): 24 h
radioprotection (30-day survival) (ICR mice; 3 μg/mouse i.p. 0.5 h before 10 Gy TBI): 10%
radioprotection (30-day survival) (ICR mice; 3 μg/mouse i.p. 6 h before 10 Gy TBI): 20%
kinetics of death versus PBS controls (ICR mice; 3 μg/mouse i.p. 24 h before 11, 12 and 13 Gy): died with an accelerated kinetics
protection (30-day survival) (ICR mice; 3 μg/mouse i.p. 24 h before 11 Gy TBI): 20%
protection from irradiation (ICR mice; 3 μg/mouse i.p. 24 h before TBI higher than 11 Gy (12-15 Gy)): no protection
30-day survival (ICR mice; 3 μg/mouse i.p. 24 hrs before 10 Gy TBI): 90-100% and 100%
radioprotection (30-day survival) (ICR mice; 3 μg/mouse i.p. 48 hrs before 10 Gy TBI): ~30%
radioprotection (ICR mice; 3 μg/mouse i.p. 72 h before 10 Gy TBI): No radioprotection
radioprotection (ICR mice; 3 μg/mouse i.p. 96 h before 10 Gy TBI): No radioprotection
combined toxicity with irradiation (ICR mice; 10 μg/mouse i.m. 24 hr before 10 Gy TBI): no sign of combined toxicity
combined toxicity with irradiation (ICR mice; [1]): Some signs of this combined toxicity were detectable
mice rescued (30-day survival) (ICR mice; [1]): 90%
mortality in combination with irradiation versus PBS (ICR mice; 20 μg/mouse i.p. 24 hrs before 10 Gy TBI): accelerated mortality
mortality in combination with irradiation versus PBS (ICR mice; 30 μg/mouse i.p. 24 hrs before 10 Gy TBI): accelerated mortality
radioprotection (ICR mice; 1, 3 or 10 μg/mouse i.m. 24 hr before 10 Gy TBI): imparted radioprotection
mortality shift at higher doses (ICR mice; 10, 30 μg i.m. prior to 10 Gy TBI): non-statistically significant shift to increased mortality
combined toxicity with irradiation (ICR mice; 10 and 30 μg/mouse i.m. 1 h after 10 Gy TBI): increased levels of combined toxicity
therapeutic index (toxic dose/effective dose) (ICR mice; i.m. administration): 10-30
optimal dose (ICR mice; i.m. and i.p., 24 h prior to 10 Gy TBI): 3 μg/mouse
effective dose per body weight (ICR mice; i.m. delivery, 24 h prior to 10 Gy TBI): 60 to 115 µg/kg
radioprotective dose relative to NOAEL (fold lower) (ICR mice; i.p.): 10-30 fold
optimal protective dose (ICR mice; i.p. 24 hrs before 10 Gy TBI): 3 μg/mouse
therapeutic index (toxic dose/effective dose) (ICR mice; i.p. administration): 3-10
effective dose per body weight (ICR mice; i.p. delivery, 24 h prior to 10 Gy TBI): 90 to 110 µg/kg
therapeutic index (ICR mice; summary of Example 5): 3
survival post-treatment (NIH Swiss mice; 10 Gy, all animals): > 35 days
effect of radiation on spleen size (NIH Swiss mice; 13 Gy total body gamma irradiation (FIG. 4)): significantly less reduction in the size of the spleen
survival post-treatment (NIH Swiss mice; 13 Gy, all but one animal): > 35 days
protection of the thymus from radiation (NIH Swiss mice; data not shown): protected the thymus from radiation
